Measurements from patent publication US10272041B2, “Acid stable liposomal compositions and methods for producing the same” (The Penn State Research Foundation, priority 2013, dated 2019).

Test system: MDA-MB-231 cells
Test: Cell viability/cell growth, cells re-treated every 48 hours
Format: cell-based
Settings: triple negative breast cancer cells
Experimental: MDA-MB-231 cells were plated on a 96-well plate at 10,000 cells per well to evaluate the effects of BSA alone, conjugated DHA-BSA, Liposomal DHA, and a ghost liposome on cell viability. The cells were re-treated every 48 hours. […] All treatments were compared to the cell/media control. The ghost had no effect on cell viability.

CC/C=C\C/C=C\C/C=C\C/C=C\C/C=C\C/C=C\CCC(=O)O [DHA, Docosahexanoic acid]
concentration that inhibits cell growth with comparable effect: 25 to 50 µM
